Here are results for one compound from patent US20050203175A1, “Parenteral composition of paracetamol” (priority 2001, published 2005).

The nature of data set [1]: Solubility in water and organic solvents. Type of data set: physicochemical. From the text: Paracetamol is soluble in Methanol, Ethanol, DMF, Ethylene chlorine, Benzyl ethanol and other organic solvents, but none of them can be used alone or in a mixture, because of their toxicity.
For data set [2] the following is noted: cited from earlier work.
The conditions of data set [3]: cited from earlier work. This is another data set of the same source.
The next data set relates to liver cytochrome P-450. To be noted: in vivo; cited from earlier work.

In the case of `CC(=O)Nc1ccc(O)cc1` [Paracetamol], in data set [1] (Methanol, Ethanol, DMF, Ethylene chlorine, Benzyl ethanol and other organic solvents), the “solubility in organic solvents” value is “soluble”. Moreover, the solubility in water entry in data set [1] (water) is reported as “practically insoluble”. Besides, the “absorption when intramuscularly administered” value in data set [2] (intramuscular, blood level similar to that after oral administration) was “well absorbed”. Besides, in data set [2] (oral administration, does not exist with injectable Paracetamol), the “loss of the drug observed after oral administration” value was 20%. In data set [3] (glucouronic acid conjugate), the “excreted through urines as conjugated derivative of glucouronic acid” value was 60%. Further, in data set [3] (sulfuric acid conjugate), the “excreted through urines as conjugated derivative of sulfuric acid” value is 35%. Further, in data set [3] (total of sulfuric and glucouronic acid conjugates), the “excreted through urines as conjugated derivatives” value is given as 95%. In addition, the excreted unchangeable in data set [3] (unchanged drug) is 2%. For the same compound, the “part oxidized by the liver cytochrome P-450 to a toxic intermediate metabolite” value in the data set on liver cytochrome P-450 is given as “approx. 3%”.
